What all share (assay): NCI tumour cell line growth inhibition, 48 h
The subject of test [1] is 786-0 renal.
Test [2] deals with A498 renal.
In test [3] the test system is COLO 205 colon.
In test [4] the test system is HCC-2998 colon.
Test [5] has as its system MOLT-4 leukemia.
For test [6], the system named is NCI-H226 lung.
Test [7] has as its system SF-295 CNS.
The subject of test [8] is SN12C renal.
Test [9] has as its system UACC-257 melanoma.
Test [10] has as its system SF-268 CNS.
Test [11] concerns HS 578T breast.

Results on 22 compounds are retold here after PubChem BioAssay (NCI).

The structures appear in SMILES notation.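 Five compound concentrations were applied to cells in 96-well plates for 48 hours; endpoints were derived by simple linear interpolation of the resulting dose-response curve. TGI marks complete inhibition of growth.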

On to `COc1cc(C(=O)N(C(=O)N2CCCCC2)c2ccccc2)cc(OC)c1OC`, for which the TGI in [1], in test [2], in test [3], in [4], in test [5] and in test [6] was above 100 µM in each case. Also, the TGI in test [7], in test [8] and in test [9] was above 100 µM in each case.

In the case of `CCSc1[nH]c(NC(=NC(C)C)NC(=O)c2ccccc2)c(C(N)=O)c1C(N)=O`, the TGI in [1], in [3], in [4], in [5], in [10] and in [7] was above 10 µM throughout. For the same compound, the TGI in [8] and in [9] was above 10 µM each time.

As to `COc1ccc(/C=C(\C2=NC(=O)CS2)c2nc3ccccc3[nH]2)cc1`, the TGI was above 100 µM in test [2]; above 100 µM in test [3]; 49.7 µM in test [4]; above 100 µM in test [5]; 28.6 µM in test [6]; above 100 µM in [10]. The TGI in test [7], in [8] and in test [9] was above 100 µM each time.

For the compound `CC(C)(CO)NC(=O)c1cccs1`, the TGI in test [1], in [3], in test [4], in [5], in test [10] and in test [7] was above 100 µM in each case. The TGI in test [8] and in [9] was above 100 µM each time.

`COc1ccc(OC)c(-c2cc(=O)c3cc4c(cc3[nH]2)OCO4)c1`: the TGI in test [1] is above 100 µM; in test [3] it was 7.93 µM; in test [4], 17.6 µM; in test [5], above 84.9 µM; in test [6], 55.6 µM; in test [10], above 100 µM. For the same compound, the values for the TGI in test [7], in test [8] and in [9] were above 27.6 µM, above 87.5 µM and above 100 µM, respectively.

With `O=P(Nc1cccc(Cl)c1)(Oc1ccccc1)N(CCCl)CCCl` (stereo not given), the TGI in test [2] is 27.6 µM; in [3], 29.3 µM; in [4], 28.6 µM; in test [5] it was above 100 µM; in [6], 29.6 µM; in [10], 31.4 µM. The TGI was 28.1 µM in test [7], 29.1 µM in [8] and 27.2 µM in test [9].

On to `C[C@]12CCC(=O)C=C1CC[C@@H]1C2CC[C@@]2(C)C1CC[C@@H]2OC(=O)C12OC1CCC2=O` (stereo not given in full), for which the TGI came to 30 µM in [1]; 35.6 µM in test [2]; 34.4 µM in [3]; 59 µM in [4]; 32.6 µM in [5]; 38.2 µM in test [6]. For the same compound, the TGI in [10] turned out to be 41.2 µM; in test [7] it was 34.7 µM; in [8], 55.5 µM; in test [9] it was 35.9 µM.

For `COCC1N=C(c2cc(OC)c(OC)c(OC)c2-c2cc3c(cc2[C@@H](C)O)OCO3)O[C@H]1c1ccccc1` (stereo not given in full), the TGI in test [2], in test [3], in test [4], in test [5], in test [6] and in test [10] was above 100 µM throughout. The TGI in test [7], in [8] and in test [9] was above 100 µM each time.

As to `O=C1C(=Cc2ccc([N+](=O)[O-])o2)C(=O)N(CCc2ccccc2)S(=O)(=O)N1CCc1ccccc1`, the TGI was 40.3 µM in test [1]; 36.9 µM in test [3]; above 100 µM in test [4]; 56.6 µM in test [5]; 41.4 µM in test [6]; 57.8 µM in test [10]. For the same compound, the TGI in test [7], in [8] and in test [9] was above 100 µM in each case.

`O=C(CSc1nnc(-c2ccc(N=Cc3ccc(Cl)cc3)cc2)o1)Nc1cccc([N+](=O)[O-])c1`: the TGI in [1], in test [3], in test [5], in test [6], in test [10] and in test [7] was above 100 µM in each case. Moreover, the TGI in test [8] and in test [9] was above 100 µM each time.

With `COC(=O)CC1NC(=O)C1C(C)(OC)OC` (stereo not given), the TGI in test [1], in test [2], in test [3], in test [4], in [5] and in [6] was above 100 µM each time. Besides, the TGI in test [10], in test [7], in test [8] and in [9] was above 100 µM throughout.

Regarding `CCC1OC2C(CC=C(C)C)=C3OC(C)(O)C(C)(CC)C(=O)C3=C3OC(=O)C=C1C32` (stereo not given), the TGI in [1] is above 100 µM; in test [2] it was above 100 µM; in test [3], 37 µM; in test [4], above 100 µM; in test [5], above 100 µM; in [6] it was above 100 µM. In addition, the TGI is above 100 µM in [10], above 100 µM in [7] and 96.2 µM in [9].

In the case of `COC(=O)[C@@H](NC(=O)c1ccc(CNC(=O)/C(C)=C/c2ccccc2)cc1)C(C)C`, the TGI in test [1] is above 100 µM; in [2], above 100 µM; in test [3], above 100 µM; in test [4], 79.9 µM; in test [5], above 100 µM; in [6] it was above 100 µM. Besides, the TGI in test [10] was above 100 µM; in [7] it was above 100 µM; in test [8], above 100 µM; in [9], 39 µM.

Take `Nc1ccn(CCCC(c2ccccc2)P(=O)(O)O)c(=O)n1` (stereo not given): the TGI in test [1], in test [2], in test [3], in [4], in test [10] and in test [7] was above 100 µM in each case. Also, the TGI in [8] and in [9] was above 100 µM in each case.

Regarding `Cc1cc(=O)[nH]c(NNC(C#N)c2ccc(N(C)C)cc2)n1` (stereo not given), the TGI in test [1], in test [3], in [6], in test [10], in test [7] and in test [8] was above 100 µM throughout. The TGI in test [9] was above 100 µM.

As for `CN(C)CCNC(=O)c1cccc2[nH]c(-c3ccc(Cl)cc3)nc12`, the TGI in test [2] came to 24 µM; in test [3], 9.29 µM; in [4] it was 16.9 µM; in test [5], 5.5 µM; in [6], 14.4 µM; in [10], 38.4 µM. Further, the TGI was determined as 21.3 µM in [7], 19.4 µM in [8] and 20.4 µM in [9].

As to `COc1ccc2nc3c([N+](=O)[O-])ccc(NCCCN(C)C)c3c(N)c2c1`, the TGI in [1] was 2.6 µM; in [3], 2.29 µM; in test [11], 4.79 µM; in test [5], 1.69 µM; in test [6], 3.82 µM; in [10], 3.31 µM. Besides, the TGI in test [7] is 2.95 µM; in [8] it was 2.99 µM.

`CC(=O)Nc1ccc(C(=O)n2[nH]c(C)c(/C=C3\C(=O)C=Cc4ccccc43)c2=O)cc1`: the TGI in [1], in test [3], in test [4], in [5], in test [6] and in test [10] was above 100 µM throughout. For the same compound, the TGI in test [7], in test [8] and in test [9] was above 100 µM in each case.

Turning to `O=C1NC2OC(CO)C(O)C(O)C2O1` (stereo not given), the TGI in [1], in test [2], in test [3], in test [4], in test [5] and in test [10] was above 100 µM in each case. Also, the TGI in test [7], in test [8] and in test [9] was above 100 µM throughout.

Consider `COc1ccc(C2NC3=C(CCCC3)N2)cc1`, for which the TGI in test [1], in [2], in [3], in test [4], in test [5] and in test [6] was above 100 µM throughout. Further, the TGI in test [10], in test [7], in test [8] and in test [9] was above 100 µM in each case.

For the compound `Brc1ccc(C[N+]23CN4CN(CN(C4)C2)C3)cc1`, the TGI is above 100 µM in test [1]; 69.4 µM in test [3]; above 100 µM in test [4]; 69 µM in test [5]; above 100 µM in test [10]; above 100 µM in [7]. Further, the TGI in [8] was 62.4 µM; in test [9], above 100 µM.

As to `COc1cc(CC(=O)c2cc3c(cc2-c2ccccc2)OCO3)cc(OC)c1OC`, the TGI in test [1] is above 100 µM; in [2] it was above 100 µM; in [3] it was above 100 µM; in test [4] it was above 100 µM; in test [5], above 100 µM; in test [6], 79.3 µM. The TGI in test [10], in test [7], in [8] and in [9] was above 100 µM throughout.
